Measured values as given in patent US20260356856A1, “KRAS G12S AND G12C INHIBITORS” (MIRATI THERAPEUTICS, INC., priority 2023, published 2026).

Tests used:
KRas G12C = biological target: T1, KRas G12C (Homo sapiens, UniProt P01116, G12C); assay: KRas binding assay, TR-FRET displacement of Cy5 labelled tracer; details: 60-minute incubation at room temperature, 1% DMSO, pH 7.5
T1 construct: Biotinylated KRas (corresponding to amino acids 1-169, produced at Accelegan Inc.); biotin (biotinylated); purchased Accelegan Inc
T1 sequence (P01116 1-169 isoform P01116-2 G12C): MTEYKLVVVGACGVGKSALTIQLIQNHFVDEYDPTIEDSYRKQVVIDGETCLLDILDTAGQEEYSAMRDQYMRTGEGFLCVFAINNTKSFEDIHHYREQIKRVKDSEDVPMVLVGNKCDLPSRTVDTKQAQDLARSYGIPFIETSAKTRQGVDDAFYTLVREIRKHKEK
In short: (§1)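 Each mutant protein, a biotinylated 1-169 construct, was combined with terbium streptavidin, tracer and compound. After sixty minutes at room temperature TR-FRET was recorded. POC data were fitted with a four-parameter IC50 model.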

KRas G12S = biological target: T2, KRas G12S (Homo sapiens, UniProt P01116, G12S); assay: as above; details: 60-minute incubation at room temperature, 1% DMSO, pH 7.5
T2 construct: Biotinylated KRas (corresponding to amino acids 1-169, produced at Accelegan Inc.); biotin (biotinylated); purchased Accelegan Inc
T2 sequence (P01116 1-169 isoform P01116-2 G12S): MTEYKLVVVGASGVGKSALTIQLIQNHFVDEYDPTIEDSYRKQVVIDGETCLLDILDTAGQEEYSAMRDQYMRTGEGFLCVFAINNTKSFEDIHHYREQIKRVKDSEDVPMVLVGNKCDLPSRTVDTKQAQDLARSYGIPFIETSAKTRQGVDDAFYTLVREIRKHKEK
In short: as §1

KRas WT = biological target: T3, KRas WT (Homo sapiens, UniProt P01116); assay: as above; details: 60-minute incubation at room temperature, 1% DMSO, pH 7.5
T3 construct: Biotinylated KRas (corresponding to amino acids 1-169, produced at Accelegan Inc.); biotin (biotinylated); purchased Accelegan Inc
T3 sequence (P01116 1-169 isoform P01116-2): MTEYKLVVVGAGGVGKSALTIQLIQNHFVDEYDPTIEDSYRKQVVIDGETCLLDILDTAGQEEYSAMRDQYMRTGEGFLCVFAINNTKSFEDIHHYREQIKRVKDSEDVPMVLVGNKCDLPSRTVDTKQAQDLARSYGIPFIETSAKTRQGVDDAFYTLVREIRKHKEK
In short: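 Displacement measured on KRas residues 1-169 (biotinylated, terbium-streptavidin labelled); 1 h, RT; 1% DMSO final; HEPES pH 7.5 / MgCl2 / Tween-20 / DTT. IC50: 4-parameter fit.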

[1] = biological target: T4, KRas-mediated phosphorylation of ERK in MKN1 cells (Homo sapiens, UniProt P01116); assay: Inhibition of KRas-mediated phosphorylation of ERK (HTRF), MKN1 cells; format: cell-based; details: MKN1 cells (KRas WT); HTRF pERK; 3 h incubation
T4 construct: pERK HTRF read-out
T4 sequence (P01116 1-188 isoform P01116-2): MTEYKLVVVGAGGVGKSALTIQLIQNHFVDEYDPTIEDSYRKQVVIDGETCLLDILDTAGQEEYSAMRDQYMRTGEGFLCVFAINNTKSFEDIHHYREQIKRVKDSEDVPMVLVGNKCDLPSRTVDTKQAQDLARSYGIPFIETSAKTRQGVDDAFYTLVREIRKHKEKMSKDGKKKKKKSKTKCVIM
Procedure: Inhibition of KRas Phosphorylation of ERK (HTRF) by Exemplary Compounds of Formula (Ia) or (Ib)
Cisbio HTRF Advanced pERK Assay Catalog #64AERPEH • Cells: MKN1, PSN1 • Procedure: • 1. Day 1: Seed 6,000 cells/well −25 μl/well in 384-well white solid bottom plate; RPM1_10% FBS. Incubate overnight at 37 °C/5% CO2. • 2.

[2] = biological target: T5, KRas-mediated phosphorylation of ERK in A549 cells (Homo sapiens, UniProt P01116, G12S); assay: Inhibition of KRas-mediated phosphorylation of ERK (HTRF), A549 cells; format: cell-based; details: HTRF pERK, 3 h incubation
T5 construct: pERK HTRF read-out
T5 sequence (P01116 1-188 isoform P01116-2 G12S): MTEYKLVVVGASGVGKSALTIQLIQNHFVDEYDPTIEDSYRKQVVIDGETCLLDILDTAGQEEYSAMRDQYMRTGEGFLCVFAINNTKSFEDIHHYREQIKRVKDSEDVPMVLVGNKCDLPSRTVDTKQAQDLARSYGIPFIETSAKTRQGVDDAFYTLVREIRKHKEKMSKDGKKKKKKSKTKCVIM

[3] = biological target: T6, KRas-mediated phosphorylation of ERK in H358 cells (Homo sapiens, UniProt P01116, G12C); assay: Inhibition of KRas-mediated phosphorylation of ERK (HTRF), H358 cells; format: cell-based; details: HTRF pERK, 3 h incubation
T6 construct: pERK HTRF read-out
T6 sequence (P01116 1-188 isoform P01116-2 G12C): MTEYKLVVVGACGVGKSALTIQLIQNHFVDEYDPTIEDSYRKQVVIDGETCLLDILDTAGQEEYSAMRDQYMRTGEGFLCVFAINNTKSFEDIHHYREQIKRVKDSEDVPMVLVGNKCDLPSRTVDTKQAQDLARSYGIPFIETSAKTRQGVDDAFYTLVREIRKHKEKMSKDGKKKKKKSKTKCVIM

Row | IC50 (KRas G12C) | IC50 (KRas G12S) | IC50 (KRas WT) | IC50 [1] | IC50 [2] | IC50 [3] | Structure (SMILES)
1 | 2 nM | 4 nM | 7 nM | 540 nM | 25 nM | 59 nM | CN(C)Cc1ccn(C(=O)C2CCCN(c3nc(OC[C@@]45CCCN4C[C@H](F)C5)nc4c(F)c(-c5ccc(F)c6sc(N)c(C#N)c56)c(Cl)cc34)CC2)n1 (stereo partly drawn) [Example 205, 2-amino-4-(6-chloro-4-(4-(3-((dimethylamino)methyl)-1H-pyrazole-1-carbonyl)azepan-1-yl)-8-fluoro-2-(((2R,7aS)-2-fluorotetrahydro-1H-pyrrolizin-7a(5H)-yl)methoxy)quinazolin-7-yl)-7-fluorobenzo[b]thiophene-3-carbonitrile]
2 | 7 nM | 9 nM | 8 nM | 26 nM | 82 nM | 31 nM | CC(C)C(=O)N(C)C(=O)C1CCN(c2nc(OC[C@@]34CCCN3C[C@H](F)C4)nc3c(F)c(-c4ccc(F)c5sc(N)c(C#N)c45)c(Cl)cc23)CC1 [Example 206, 1-(7-(2-amino-3-cyano-7-fluorobenzo[b]thiophen-4-yl)-6-chloro-8-fluoro-2-(((2R,7aS)-2-fluorotetrahydro-1H-pyrrolizin-7a(5H)-yl)methoxy)quinazolin-4-yl)-N-isobutyryl-N-methylpiperidine-4-carboxamide]
3 | 168 nM | 165 nM | 496 nM | 1110 nM | 281 nM | 1460 nM | CCc1c(F)ccc2cc(O)cc(-c3ncc4c(N5CCC(C(=O)N(C)C(=O)COC)CC5)nc(OC[C@@]56CCCN5C[C@H](F)C6)nc4c3F)c12 [Example 209, 1-(7-(8-ethyl-7-fluoro-3-hydroxynaphthalen-1-yl)-8-fluoro-2-(((2R,7aS)-2-fluorotetrahydro-1H-pyrrolizin-7a(5H)-yl)methoxy)pyrido[4,3-d]pyrimidin-4-yl)-N-(2-methoxyacetyl)-N-methylpiperidine-4-carboxamide]
4 | 2250 nM | 1290 nM | 2730 nM | 5020 nM | 741 nM | 8660 nM | CCc1c(F)ccc2cc(O)cc(-c3ncc4c(N5C[C@H]6C[C@@H](C(=O)n7ccc(C)n7)[C@H]6C5)nc(OC[C@@]56CCCN5C[C@H](F)C6)nc4c3F)c12 [Example 210, ((1S,5S,6R)-3-(7-(8-ethyl-7-fluoro-3-hydroxynaphthalen-1-yl)-8-fluoro-2-(((2R,7aS)-2-fluorotetrahydro-1H-pyrrolizin-7a(5H)-yl)methoxy)pyrido[4,3-d]pyrimidin-4-yl)-3-azabicyclo[3.2.0]heptan-6-yl)(3-methyl-1H-pyrazol-1-yl)methanone]
5 | 61 nM | 15 nM | 314 nM | 567 nM | 23 nM | 518 nM | CCc1c(F)ccc2cc(O)cc(-c3ncc4c(N5C[C@@H]6C[C@H](C(=O)n7ccc(C)n7)[C@@H]6C5)nc(OC[C@@]56CCCN5C[C@H](F)C6)nc4c3F)c12 [Example 211, ((1R,5R,6S)-3-(7-(8-ethyl-7-fluoro-3-hydroxynaphthalen-1-yl)-8-fluoro-2-(((2R,7aS)-2-fluorotetrahydro-1H-pyrrolizin-7a(5H)-yl)methoxy)pyrido[4,3-d]pyrimidin-4-yl)-3-azabicyclo[3.2.0]heptan-6-yl)(3-methyl-1H-pyrazol-1-yl)methanone]

The remaining lines, values behind:

Row | Structure (SMILES) | IC50 (KRas G12C) | IC50 (KRas G12S) | IC50 (KRas WT) | IC50 [1] | IC50 [2] | IC50 [3]
6 | COCc1ccn(C(=O)C2CCCN(c3nc(OC[C@@]45CCCN4C[C@H](F)C5)nc4c(F)c(-c5ccc(F)c6sc(N)c(C#N)c56)c(Cl)cc34)CC2)n1 (stereo partly drawn) [Example 190, 2-amino-4-(6-chloro-8-fluoro-2-(((2R,7aS)-2-fluorotetrahydro-1H-pyrrolizin-7a(5H)-yl)methoxy)-4-(4-(3-(methoxymethyl)-1H-pyrazole-1-carbonyl)azepan-1-yl)quinazolin-7-yl)-7-fluorobenzo[b]thiophene-3-carbonitrile] | 5 nM | 4 nM | 13 nM | 205 nM | 7 nM | 7 nM
7 | N#Cc1c(N)sc2c(F)ccc(-c3c(Cl)cc4c(N5CCN(C(=O)n6nccn6)CC5)nc(OC[C@@]56CCCN5C[C@H](F)C6)nc4c3F)c12 [Example 191, 4-(4-(4-(2H-1,2,3-triazole-2-carbonyl)piperazin-1-yl)-6-chloro-8-fluoro-2-(((2R,7aS)-2-fluorotetrahydro-1H-pyrrolizin-7a(5H)-yl)methoxy)quinazolin-7-yl)-2-amino-7-fluorobenzo[b]thiophene-3-carbonitrile] | < 2 nM | 7 nM | 6 nM | 15 nM | 290 nM | 1 nM
8 | CCc1c(F)ccc2cc(O)cc(N3CCc4c(nc(OC[C@@]56CCCN5C[C@H](F)C6)nc4N4CCCCCC(C(=O)n5ccc(C)n5)C4)C3)c12 (stereo partly drawn) [Example 192, (1-(7-(8-ethyl-7-fluoro-3-hydroxynaphthalen-1-yl)-2-(((2R,7aS)-2-fluorotetrahydro-1H-pyrrolizin-7a(5H)-yl)methoxy)-5,6,7,8-tetrahydropyrido[3,4-d]pyrimidin-4-yl)azocan-3-yl)(3-methyl-1H-pyrazol-1-yl)methanone] | 27 nM | 35 nM | 23 nM | 105 nM | 4250 nM | 160 nM
9 | CCc1c(F)ccc2cc(O)cc(N3CCc4c(nc(OC[C@@]56CCCN5C[C@H](F)C6)nc4NCCC(=O)n4ccc(C)n4)C3)c12 [Example 195, 3-((7-(8-ethyl-7-fluoro-3-hydroxynaphthalen-1-yl)-2-(((2R,7aS)-2-fluorotetrahydro-1H-pyrrolizin-7a(5H)-yl)methoxy)-5,6,7,8-tetrahydropyrido[3,4-d]pyrimidin-4-yl)amino)-1-(3-methyl-1H-pyrazol-1-yl) propan-1-one] | 13 nM | 6 nM | 43 nM | 936 nM | 84 nM | 1170 nM
10 | CN(CCCC(=O)Oc1cccc(F)c1)c1nc(OC[C@@]23CCCN2C[C@H](F)C3)nc2c(F)c(-c3ccc(F)c4sc(N)c(C#N)c34)c(Cl)cc12 [Example 198, 3-fluorophenyl 4-((7-(2-amino-3-cyano-7-fluorobenzo[b]thiophen-4-yl)-6-chloro-8-fluoro-2-(((2R,7aS)-2-fluorotetrahydro-1H-pyrrolizin-7a(5H)-yl)methoxy)quinazolin-4-yl)(methyl)amino)butanoate] | 2 nM | 14 nM | 77 nM | 159 nM | 489 nM | 28 nM
11 | Cc1ccn(C(=O)CCCCN(C)c2nc(OC[C@@]34CCCN3C[C@H](F)C4)nc3c(F)c(-c4ccc(F)c5sc(N)c(C#N)c45)c(Cl)cc23)n1 [Example 199, 2-amino-4-(6-chloro-8-fluoro-2-(((2R,7aS)-2-fluorotetrahydro-1H-pyrrolizin-7a(5H)-yl)methoxy)-4-(methyl(5-(3-methyl-1H-pyrazol-1-yl)-5-oxopentyl)amino)quinazolin-7-yl)-7-fluorobenzo[b]thiophene-3-carbonitrile] | 17 nM | 27 nM | 26 nM | 236 nM | 4320 nM | 432 nM
12 | CN(CCCC(=O)N(C)c1ccccn1)c1nc(OC[C@@]23CCCN2C[C@H](F)C3)nc2c(F)c(-c3ccc(F)c4sc(N)c(C#N)c34)c(Cl)cc12 [Example 200, 4-((7-(2-amino-3-cyano-7-fluorobenzo[b]thiophen-4-yl)-6-chloro-8-fluoro-2-(((2R,7aS)-2-fluorotetrahydro-1H-pyrrolizin-7a(5H)-yl)methoxy)quinazolin-4-yl)(methyl)amino)-N-methyl-N-(pyridin-2-yl) butanamide] | 2 nM | 4 nM | 5 nM | 86 nM | 729 nM | 112 nM
13 | CN(CCCC(=O)Nc1cccnc1)c1nc(OC[C@@]23CCCN2C[C@H](F)C3)nc2c(F)c(-c3ccc(F)c4sc(N)c(C#N)c34)c(Cl)cc12 [Example 201, 4-((7-(2-amino-3-cyano-7-fluorobenzo[b]thiophen-4-yl)-6-chloro-8-fluoro-2-(((2R,7aS)-2-fluorotetrahydro-1H-pyrrolizin-7a(5H)-yl)methoxy)quinazolin-4-yl)(methyl)amino)-N-(pyridin-3-yl)butanamide] | 4 nM | 5 nM | 6 nM | 251 nM | 1570 nM | 373 nM
14 | CN(CCCC(=O)Oc1ccccc1)c1nc(OC[C@@]23CCCN2C[C@H](F)C3)nc2c(F)c(-c3ccc(F)c4sc(N)c(C#N)c34)c(Cl)cc12 [Example 204, phenyl 4-((7-(2-amino-3-cyano-7-fluorobenzo[b]thiophen-4-yl)-6-chloro-8-fluoro-2-(((2R,7aS)-2-fluorotetrahydro-1H-pyrrolizin-7a(5H)-yl)methoxy)quinazolin-4-yl)(methyl)amino)butanoate] | < 2 nM | 13 nM | 38 nM | 230 nM | 351 nM | 17 nM
